Source: patent US12077503B2, “Substituted cyclic amides and their use as herbicides” (FMC CORPORATION, priority 2015, dated 2024)

Experiments:
Format in all cases: in vivo
Kochia (Kochia scoparia) [1] = assay: Test A preemergence
Outline: (§1)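 Preemergence soil spray on seeded pots or post-emergence spray on 1–2 leaf plants, in loam–sand blend. Greenhouse ~10 d. Visual rating 0–100 against untreated plants.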

[2] = test system: barnyardgrass (Echinochloa crus-galli); assay: Test A preemergence
Outline: as §1

[3] = test system: giant foxtail (Setaria faberii); assay: Test A preemergence
Outline: as §1

[4] = test system: pigweed (Amaranthus retroflexus); assay: Test A preemergence
[5] = test system: ragweed (common ragweed, Ambrosia elatior); assay: Test A preemergence
Outline: as §1

[6] = test system: ryegrass, Italian (Italian ryegrass, Lolium multiflorum); assay: Test A preemergence
Outline: as §1

[7] = test system: Galium (catchweed bedstraw, Galium aparine); assay: Test A postemergence
Outline: as §1

Kochia (Kochia scoparia) [8] = assay: Test A postemergence
Outline: as §1

[9] = test system: barnyardgrass (Echinochloa crus-galli); assay: Test A postemergence
Outline: as §1

[10] = test system: blackgrass (Alopecurus myosuroides); assay: Test A postemergence
Outline: as §1

corn (Zea mays) = assay: Test A postemergence
Outline: as §1

[11] = test system: giant foxtail (Setaria faberii); assay: Test A postemergence
Outline: as §1

[12] = test system: pigweed (Amaranthus retroflexus); assay: Test A postemergence
Outline: as §1

[13] = test system: ragweed (common ragweed, Ambrosia elatior); assay: Test A postemergence
Outline: as §1

[14] = test system: ryegrass, Italian (Italian ryegrass, Lolium multiflorum); assay: Test A postemergence
Outline: as §1

[15] = test system: wheat (Triticum aestivum); assay: Test A postemergence
Outline: as §1

[16] = test system: barnyardgrass (Echinochloa crus-galli); assay: Test B flooded paddy test; settings: Flood, 250 g ai/ha; 0 to 100 scale where 0 is no effect and 100 is complete control; 13 to 15 d
Outline: (§2)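 Rating scale 0–100 (visual, vs untreated controls) after a 13–15 d greenhouse period; application to the flood layer, 3 cm above soil and maintained; plants at 2-leaf stage when treated.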

[17] = test system: ducksalad (Heteranthera limosa); assay: Test B flooded paddy test; settings: Flood, 250 g ai/ha; 0 to 100 scale where 0 is no effect and 100 is complete control; 13 to 15 d
Outline: as §2

rice (Oryra sativa) = assay: Test B flooded paddy test; settings: Flood, 250 g ai/ha; 0 to 100 scale where 0 is no effect and 100 is complete control; 13 to 15 d
Outline: as §2

[18] = test system: sedge, umbrella (small-flower umbrella sedge, Cyperus difformis); assay: Test B flooded paddy test; settings: Flood, 250 g ai/ha; 0 to 100 scale where 0 is no effect and 100 is complete control; 13 to 15 d
Outline: as §2

[19] = test system: barnyardgrass (Echinochloa crus-galli); assay: Test C flooded paddy test; settings: Flood, 0 is no effect, 100 is complete control
Outline: (§3)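 Compound was added directly to paddy water held 3 cm above the soil, with plants at the 2-leaf stage. Injury was scored visually versus untreated controls after 13–15 d greenhouse growth, using a 0–100 scale where 100 means complete control.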

[20] = test system: ducksalad (Heteranthera limosa); assay: Test C flooded paddy test; settings: Flood, 0 is no effect, 100 is complete control
Outline: as §3

rice (Oryza sativa) = assay: Test C flooded paddy test; settings: Flood, 0 is no effect, 100 is complete control
Outline: as §3

[21] = test system: sedge, umbrella (small-flower umbrella sedge, Cyperus difformis); assay: Test C flooded paddy test; settings: Flood, 0 is no effect, 100 is complete control
Outline: as §3

[22] = 125 g ai/ha, Preemergence, visual injury after approximately 10 d, 0 to 100 scale where 0 is no effect and 100 is complete control
[23] = Preemergence, 500 g ai/ha, visual injury approx. 10 d
[24] = 125 g ai/ha, postemergence, visual rating after approx. 10 d, 0 to 100 scale (0 no effect, 100 complete control)
[25] = Postemergence, 500 g ai/ha, 0 to 100 scale where 0 is no effect and 100 is complete control
[26] = 500 g ai/ha, preemergence, 0 to 100 scale, 0 = no effect, 100 = complete control
[27] = 500 g ai/ha, postemergence, visual injury, 0 to 100 scale (0 no effect, 100 complete control), approx. 10 d

CN1CC(c2ccc(F)c(C(F)(F)F)c2)C(C(=O)Nc2ccccc2F)C1=O (stereo not shown) [Compound 611]
Plant response rating, Kochia (Kochia (Kochia scoparia) [1]; [22]): 40 | Kochia plant response rating (0 to 100 scale, 0 is no effect, 100 is complete control) (Kochia (Kochia scoparia) [1]; [23]): 60 | Plant response rating, Barnyardgrass [2, 22]: 90 | Barnyardgrass plant response rating (0 to 100 scale, 0 is no effect, 100 is complete control) [2, 23]: 90 | Plant response rating, Foxtail, Giant [3, 22]: 90 | Foxtail, Giant plant response rating (0 to 100 scale, 0 is no effect, 100 is complete control) [3, 23]: 90 | Plant response rating, Pigweed [4, 22]: 70 | Pigweed plant response rating (0 to 100 scale, 0 is no effect, 100 is complete control) [4, 23]: 80 | Plant response rating, Ragweed [5, 22]: 0 | Plant response rating, Ryegrass, Italian [6, 22]: 60 | Ryegrass, Italian plant response rating (0 to 100 scale, 0 is no effect, 100 is complete control) [6, 23]: 60 | Plant response rating, Galium [7, 24]: 50 | Plant response rating, Galium [7, 25]: 60 | Plant response rating, Kochia (Kochia (Kochia scoparia) [8]; [24]): 60 | Plant response rating, Kochia (Kochia (Kochia scoparia) [8]; [25]): 70 | Plant response rating, Barnyardgrass [9, 24]: 90 | Plant response rating, Barnyardgrass [9, 25]: 90 | Plant response rating, Blackgrass [10, 24]: 50 | Plant response rating, Blackgrass [10, 25]: 70 | Plant response rating, Corn (corn (Zea mays); [24]): 50 | Plant response rating, Corn (corn (Zea mays); [25]): 70 | Plant response rating, Foxtail, Giant [11, 24]: 90 | Plant response rating, Foxtail, Giant [11, 25]: 90 | Plant response rating, Pigweed [12, 24]: 20 | Plant response rating, Pigweed [12, 25]: 30 | Plant response rating, Ragweed [13, 24]: 0 | Plant response rating, Ragweed [13, 25]: 30 | Plant response rating, Ryegrass, Italian [14, 24]: 40 | Plant response rating, Ryegrass, Italian [14, 25]: 70 | Plant response rating, Wheat [15, 24]: 40 | Plant response rating, Wheat [15, 25]: 60 | Plant response rating, Barnyardgrass [16]: 85 | Plant response rating, Ducksalad [17]: 100 | Plant response rating, Rice (rice (Oryra sativa)): 40 | Plant response rating, Sedge, Umbrella [18]: 0 | Plant response rating (scale of 0 to 100), Barnyardgrass ([19]; 31 g ai/ha): 0 | Plant response rating (scale of 0 to 100), Barnyardgrass ([19]; 62 g ai/ha): 0 | Plant response rating (scale of 0 to 100), Barnyardgrass ([19]; 125 g ai/ha): 60 | Plant response rating (scale of 0 to 100), Barnyardgrass ([19]; 250 g ai/ha): 75 | Plant response rating (scale of 0 to 100), Ducksalad ([20]; 31 g ai/ha): 0 | Plant response rating (scale of 0 to 100), Ducksalad ([20]; 62 g ai/ha): 0 | Plant response rating (scale of 0 to 100), Ducksalad ([20]; 125 g ai/ha): 80 | Plant response rating (scale of 0 to 100), Ducksalad ([20]; 250 g ai/ha): 95 | Plant response rating (scale of 0 to 100), Rice (rice (Oryza sativa); 31 g ai/ha): 0 | Plant response rating (scale of 0 to 100), Rice (rice (Oryza sativa); 62 g ai/ha): 0 | Plant response rating (scale of 0 to 100), Rice (rice (Oryza sativa); 125 g ai/ha): 0 | Plant response rating (scale of 0 to 100), Rice (rice (Oryza sativa); 250 g ai/ha): 15 | Plant response rating (scale of 0 to 100), Sedge, Umbrella ([21]; 31 g ai/ha): 0 | Plant response rating (scale of 0 to 100), Sedge, Umbrella ([21]; 62 g ai/ha): 0 | Plant response rating (scale of 0 to 100), Sedge, Umbrella ([21]; 125 g ai/ha): 0 | Plant response rating (scale of 0 to 100), Sedge, Umbrella ([21]; 250 g ai/ha): 0

CN1CC(c2cccc(F)c2)C(C(=O)Nc2ccc(F)cc2F)C1=O (stereo not shown) [Compound 633]
Plant response rating, Kochia (Kochia (Kochia scoparia) [1]; [22]): 30 | Plant response rating, Kochia (Kochia (Kochia scoparia) [1]; [26]): 50 | Plant response rating, Barnyardgrass [2, 22]: 90 | Plant response rating, Barnyardgrass [2, 26]: 90 | Plant response rating, Foxtail, Giant [3, 22]: 90 | Plant response rating, Foxtail, Giant [3, 26]: 90 | Plant response rating, Pigweed [4, 22]: 0 | Plant response rating, Pigweed [4, 26]: 50 | Plant response rating, Ragweed [5, 22]: 0 | Plant response rating, Ragweed [5, 26]: 50 | Plant response rating, Ryegrass, Italian [6, 22]: 30 | Plant response rating, Ryegrass, Italian [6, 26]: 60 | Plant response rating, Galium [7, 24]: 0 | Plant response rating, Galium [7, 27]: 50 | Plant response rating, Kochia (Kochia (Kochia scoparia) [8]; [24]): 40 | Plant response rating, Kochia (Kochia (Kochia scoparia) [8]; [27]): 60 | Plant response rating, Barnyardgrass [9, 24]: 90 | Plant response rating, Barnyardgrass [9, 25]: 90 | Plant response rating, Blackgrass [10, 24]: 20 | Plant response rating, Blackgrass [10, 25]: 50 | Plant response rating, Corn (corn (Zea mays); [24]): 0 | Plant response rating, Corn (corn (Zea mays); [25]): 60 | Plant response rating, Foxtail, Giant [11, 24]: 90 | Plant response rating, Foxtail, Giant [11, 27]: 90 | Plant response rating, Pigweed [12, 24]: 0 | Plant response rating, Pigweed [12, 27]: 0 | Plant response rating, Ragweed [13, 24]: 0 | Plant response rating, Ragweed [13, 27]: 0 | Plant response rating, Ryegrass, Italian [14, 24]: 0 | Plant response rating, Ryegrass, Italian [14, 27]: 50 | Plant response rating, Wheat [15, 24]: 0 | Plant response rating, Wheat [15, 27]: 40 | Plant response rating, Barnyardgrass [16]: 90 | Plant response rating, Ducksalad [17]: 100 | Plant response rating, Rice (rice (Oryra sativa)): 20 | Plant response rating, Sedge, Umbrella [18]: 0 | Plant response rating (scale of 0 to 100), Barnyardgrass ([19]; 31 g ai/ha): 10 | Plant response rating (scale of 0 to 100), Barnyardgrass ([19]; 62 g ai/ha): 40 | Plant response rating (scale of 0 to 100), Barnyardgrass ([19]; 125 g ai/ha): 55 | Plant response rating (scale of 0 to 100), Barnyardgrass ([19]; 250 g ai/ha): 70 | Plant response rating (scale of 0 to 100), Ducksalad ([20]; 31 g ai/ha): 0 | Plant response rating (scale of 0 to 100), Ducksalad ([20]; 62 g ai/ha): 60 | Plant response rating (scale of 0 to 100), Ducksalad ([20]; 125 g ai/ha): 75 | Plant response rating (scale of 0 to 100), Ducksalad ([20]; 250 g ai/ha): 100 | Plant response rating (scale of 0 to 100), Rice (rice (Oryza sativa); 31 g ai/ha): 0 | Plant response rating (scale of 0 to 100), Rice (rice (Oryza sativa); 62 g ai/ha): 0 | Plant response rating (scale of 0 to 100), Rice (rice (Oryza sativa); 125 g ai/ha): 0 | Plant response rating (scale of 0 to 100), Rice (rice (Oryza sativa); 250 g ai/ha): 10 | Plant response rating (scale of 0 to 100), Sedge, Umbrella ([21]; 31 g ai/ha): 0 | Plant response rating (scale of 0 to 100), Sedge, Umbrella ([21]; 62 g ai/ha): 0 | Plant response rating (scale of 0 to 100), Sedge, Umbrella ([21]; 125 g ai/ha): 0 | Plant response rating (scale of 0 to 100), Sedge, Umbrella ([21]; 250 g ai/ha): 0
